Experimental data as given in patent US12103915B2, “TEAD inhibitors and methods of uses thereof” (Insilico Medicine IP Limited, priority 2022, dated 2024).

How the values were obtained:
Type in all cases: binding
[1] = molecular target: TEAD1 (Homo sapiens, UniProt P28347); assay: Thermal shift assay TEAD1
Experimental: (§1) Example B: Thermal Shift Assay
(§2) 1) Prepare a fresh dilution of Protein Thermal Shift™ Dye (Applied Biosystems, 1000×) to 8× by […].
(§3) 2) To ensure the same DMSO concentration, the compounds were diluted as follows: Prepare 10 mM stock solution of compounds;
(§4) The final DMSO concentration was 0.1%
(§5) 10 μM: Diluting stock solution to 100 μM by using PBS.
(§6) 1 μM: Diluting stock solution to 1 mM by using DMSO, then dilute to 10 μM by using PBS.
(§7) TEAD1: the stock concentration was 2.9 mg/ml; the final concentration was 0.2 mg/ml. TEAD2: the stock concentration was 1.8 mg/ml; the final concentration was 0.08 mg/ml.
(§8) 4) Place the appropriate reaction plate or tubes on ice, then prepare the protein melt reactions:
(§9) 5) Pipet each reaction up and down 10 times to mix well.
(§10) 6) Seal the plate with MicroAmp™ Optical Adhesive Film, spin it at 1000 rpm for 1 minute.
(§11) 7) Set up and run on the qPCR instrument.
(§12) Using thermal Shift™ Software v1.3 to analysis.

[2] = molecular target: TEAD2 (Homo sapiens, UniProt Q15562); assay: Thermal shift assay TEAD2
Experimental: as §1, §2, §3, §4, §5, §6, §7, §8, §9, §10, §11, §12

[3] = molecular target: TEAD3 (Homo sapiens, UniProt Q99594); assay: Thermal shift assay TEAD3
Experimental: as §1, §2, §3, §4, §5, §6
TEAD3: the stock concentration was 2.4 mg/ml; the final concentration was 0.1 mg/ml.
as §8, §9, §10, §11, §12

[4] = molecular target: TEAD4 (Homo sapiens, UniProt Q15561); assay: Thermal shift assay TEAD4
Experimental: as §1, §2, §3, §4, §5, §6
TEAD4: the stock concentration was 2.3 mg/ml; the final concentration was 0.1 mg/ml.
as §8, §9, §10, §11, §12

TEAD1, sequence (P28347 whole entry, species assumed): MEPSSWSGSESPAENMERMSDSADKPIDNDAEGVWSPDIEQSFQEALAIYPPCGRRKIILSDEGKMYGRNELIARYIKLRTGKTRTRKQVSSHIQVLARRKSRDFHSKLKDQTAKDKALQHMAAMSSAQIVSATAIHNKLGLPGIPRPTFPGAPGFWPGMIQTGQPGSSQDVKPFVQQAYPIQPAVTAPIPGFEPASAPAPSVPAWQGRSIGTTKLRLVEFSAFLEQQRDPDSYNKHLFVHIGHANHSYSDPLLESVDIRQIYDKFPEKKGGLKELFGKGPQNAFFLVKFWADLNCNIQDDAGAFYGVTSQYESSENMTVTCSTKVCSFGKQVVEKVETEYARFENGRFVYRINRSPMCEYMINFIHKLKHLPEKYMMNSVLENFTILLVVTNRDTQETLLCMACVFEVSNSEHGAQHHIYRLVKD
TEAD3, sequence (Q99594 whole entry, species assumed): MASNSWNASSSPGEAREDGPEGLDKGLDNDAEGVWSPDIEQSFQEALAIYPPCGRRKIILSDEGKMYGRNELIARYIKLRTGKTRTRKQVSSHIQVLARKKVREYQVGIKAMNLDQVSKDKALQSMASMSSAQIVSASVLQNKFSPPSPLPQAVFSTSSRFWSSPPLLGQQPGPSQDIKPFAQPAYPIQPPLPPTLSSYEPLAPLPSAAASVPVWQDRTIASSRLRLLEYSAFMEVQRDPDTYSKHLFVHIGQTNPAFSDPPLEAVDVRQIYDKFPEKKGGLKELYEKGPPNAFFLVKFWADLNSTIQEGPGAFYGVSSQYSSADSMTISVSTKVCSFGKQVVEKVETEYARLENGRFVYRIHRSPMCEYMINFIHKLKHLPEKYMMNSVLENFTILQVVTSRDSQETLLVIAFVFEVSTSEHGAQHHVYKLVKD
TEAD4, sequence (Q15561 whole entry, species assumed): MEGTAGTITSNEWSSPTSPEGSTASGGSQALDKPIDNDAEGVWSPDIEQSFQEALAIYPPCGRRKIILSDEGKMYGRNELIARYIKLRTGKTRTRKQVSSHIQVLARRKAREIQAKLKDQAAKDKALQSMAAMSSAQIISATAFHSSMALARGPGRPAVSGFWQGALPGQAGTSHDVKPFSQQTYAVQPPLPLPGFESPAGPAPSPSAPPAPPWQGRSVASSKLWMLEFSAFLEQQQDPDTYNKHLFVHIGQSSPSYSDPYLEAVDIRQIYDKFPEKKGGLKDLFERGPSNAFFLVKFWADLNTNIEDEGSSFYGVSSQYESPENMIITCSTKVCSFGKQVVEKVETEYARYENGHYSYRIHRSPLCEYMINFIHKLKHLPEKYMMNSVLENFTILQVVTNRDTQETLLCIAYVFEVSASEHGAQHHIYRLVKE
TEAD2, sequence (Q15562 whole entry, species assumed): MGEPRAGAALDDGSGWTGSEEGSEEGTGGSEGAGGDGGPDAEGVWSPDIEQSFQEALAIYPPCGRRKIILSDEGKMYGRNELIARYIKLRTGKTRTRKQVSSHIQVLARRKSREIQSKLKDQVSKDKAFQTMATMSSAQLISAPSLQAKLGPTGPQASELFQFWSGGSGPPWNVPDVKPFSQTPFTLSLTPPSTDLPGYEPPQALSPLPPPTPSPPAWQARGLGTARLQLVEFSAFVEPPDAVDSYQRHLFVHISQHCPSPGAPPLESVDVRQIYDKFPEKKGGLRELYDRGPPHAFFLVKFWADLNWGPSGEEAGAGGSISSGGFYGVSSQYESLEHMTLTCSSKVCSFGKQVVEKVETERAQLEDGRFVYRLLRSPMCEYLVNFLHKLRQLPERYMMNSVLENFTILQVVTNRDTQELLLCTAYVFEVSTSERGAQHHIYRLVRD

Structure (SMILES)	TEAD1 ΔTm [1]	TEAD2 ΔTm [2]	TEAD3 ΔTm [3]	TEAD4 ΔTm [4]
CNS(=O)(=O)[C@@H]1CC1c1cc(-c2ccc(C(F)(F)F)cc2)cc2cn(C)nc12 (mixture of isomers) [Example 50]	4.2 °C	2.5 °C	0.7 °C	5.7 °C
O=C(O)[C@@H]1CC1c1cc(Oc2ccc(C(F)(F)F)cc2)cn2ccnc12 (mixture of isomers) [Example 83]	2.7 °C	8.0 °C	1.4 °C	3.6 °C
CNC(=O)[C@@H]1CC1c1cc(Oc2ccc(C(F)(F)F)cc2)cn2ccnc12 (mixture of isomers) [Example 84]	1.0 °C	6.5 °C	1.2 °C	3.1 °C
Cn1cc2cc(Oc3ccc(C(F)(F)F)cc3)cc([C@@H]3C[C@H]3C(=O)O)c2n1 (single isomer, unassigned) [Example 16a]	11.3 °C	13.7 °C	2 °C	11.4 °C
Cn1cc2cc(Oc3ccc(C(F)(F)F)cc3)cc([C@H]3C[C@@H]3C(=O)O)c2n1 (single isomer, unassigned) [Example 16b]	12.1 °C	14.9 °C	15 °C	12.5 °C
[2H]C([2H])([2H])n1cc2cc(Oc3ccc(C(F)(F)F)cc3)cc([C@@H]3C[C@H]3C(=O)NC)c2n1 (single isomer, unassigned) [Example 76a]	5.4 °C	10.3 °C	0.6 °C	4.7 °C
[2H]C([2H])([2H])n1cc2cc(Oc3ccc(C(F)(F)F)cc3)cc([C@H]3C[C@@H]3C(=O)NC)c2n1 (single isomer, unassigned) [Example 76b]	11.5 °C	15.4 °C	10.9 °C	12.6 °C
Cn1cc2cc(O[C@H]3CC[C@@H](C(F)(F)F)CC3)cc([C@@H]3C[C@H]3C(=O)N3CC(O)C3)c2n1 (single isomer, unassigned) [Example 87a]	4.9 °C	10.1 °C	1.0 °C	6.8 °C
Cn1cc2cc(O[C@H]3CC[C@@H](C(F)(F)F)CC3)cc([C@H]3C[C@@H]3C(=O)N3CC(O)C3)c2n1 (single isomer, unassigned) [Example 87b]	−0.4 °C	2.6 °C	0.0 °C	0.3 °C
Cn1cc2cc(Oc3ccc(C(F)(F)F)cn3)cc([C@@H]3C[C@H]3C(=O)N3CC(O)C3)c2n1 (single isomer, unassigned) [Example 88a]	−0.3 °C	1.5 °C	0.1 °C	0.1 °C
Cn1cc2cc(Oc3ccc(C(F)F)cc3)cc([C@@H]3C[C@H]3C(=O)N3CC(O)C3)c2n1 (single isomer, unassigned) [Example 89a]	0.0 °C	3.3 °C	0.2 °C	−0.2 °C
Cn1cc2cc(Oc3ccc(F)c(F)c3)cc([C@@H]3C[C@H]3C(=O)N3CC(O)C3)c2n1 (single isomer, unassigned) [Example 90a]	−0.2 °C	2.6 °C	0.2 °C	0.6 °C
Cn1cc2cc(Oc3ccc(C(F)(F)F)cc3)cc(C3C[C@H]3C(=O)N3CC4CC3[C@H](O)[C@H]4O)c2n1 (single isomer, unassigned) [Example 106]	6.4 °C	9.9 °C	2.2 °C	8.5 °C
Cn1cc2cc(Oc3ccc(C(F)(F)F)cc3)cc(C3C[C@H]3C(=O)NC[C@H]3C[C@@H](O)[C@@H](O)C3O)c2n1 (single isomer, unassigned) [Example 107]	5.0 °C	4.9 °C	1.1 °C	6.1 °C
Cn1cc2nc(Oc3ccc(C(F)(F)F)cc3)nc([C@H]3C[C@@H]3C(=O)N3CC(O)C3)c2n1 (single isomer, unassigned) [Example 109b]	1.8 °C	2.2 °C	0.9 °C	3.4 °C
Cn1cc2cc(Oc3ccc(C(F)(F)F)cc3)cc(C3C[C@H]3C(=O)N3CCS(=O)(=O)CC3)c2n1 (single isomer, unassigned) [Example 110]	4.1 °C	5.2 °C	1.0 °C	4.1 °C

Structure (SMILES)	TEAD1 ΔTm [1]	TEAD2 ΔTm [2]	TEAD3 ΔTm [3]	TEAD4 ΔTm [4]
Cn1cc2cc(Oc3ccc(C(F)(F)F)cc3)cc(C3C[C@H]3C(=O)N3CCP(C)(=O)CC3)c2n1 (single isomer, unassigned) [Example 111]	3.0 °C	3.7 °C	0.7 °C	3.2 °C
CO[C@H]1CN(C(=O)[C@@H]2C[C@H]2c2cc(Oc3ccc(C(F)(F)F)cc3)cc3cn(C)nc23)C[C@@H]1O (single isomer, unassigned) [Example 112a]	7.2 °C	9.5 °C	2.0 °C	8.6 °C
Cn1cc2cc(Oc3ccc(C(F)(F)F)cc3)cc(C3C[C@H]3C(=O)N3CC(C(=O)O)C3)c2n1 (single isomer, unassigned) [Example 113]	4.1 °C	5.7 °C	1.5 °C	4.2 °C
Cn1cc2cc(Oc3ccc(C(F)(F)F)cc3)cc(C3C[C@H]3C(=O)N3CCOC4(COC4)C3)c2n1 (single isomer, unassigned) [Example 114]	4.6 °C	7.1 °C	1.5 °C	7.1 °C
CN1CCC2(CN(C(=O)[C@@H]3CC3c3cc(Oc4ccc(C(F)(F)F)cc4)cc4cn(C)nc34)C2)C1=O (single isomer, unassigned) [Example 115]	4.2 °C	3.5 °C	1.3 °C	3.5 °C
Cn1cc2cc(Oc3ccc(C(F)(F)F)cc3)cc(C3C[C@H]3C(=O)N3C4COCC3CC(O)C4)c2n1 (single isomer, unassigned) [Example 116a]	4.6 °C	6.1 °C	1.8 °C	6.1 °C
Cn1cc2cc(Oc3ccc(C(F)(F)F)cc3)cc(C3C[C@H]3C(=O)N3C4COCC3CC(O)C4)c2n1 (single isomer, unassigned) [Example 116b]	5.5 °C	5.3 °C	2.2 °C	7.1 °C
Cn1cc2nc(Oc3ccc(C(F)(F)F)cc3)cc([C@@H]3C[C@H]3C(=O)N3C4COCC3C4)c2n1 (single isomer, unassigned) [Example 118]	4.6 °C	6.2 °C	1.6 °C	6.1 °C
Cn1cc2nc(Oc3ccc(C(F)(F)F)cc3)cc([C@@H]3C[C@H]3C(=O)N3C[C@H]4C[C@@H]3CO4)c2n1 (single isomer, unassigned) [Example 119]	4.2 °C	6.1 °C	1.6 °C	4.7 °C
Cn1cc2nc(Oc3ccc(C(F)(F)F)cc3)cc([C@@H]3C[C@H]3C(=O)N3C[C@@H]4C[C@H]3CO4)c2n1 (single isomer, unassigned) [Example 120]	4.1 °C	6.5 °C	1.2 °C	4.5 °C
Cn1cc2cc(Oc3ccc(C(F)(F)F)cc3)cc([C@@H]3C[C@H]3C(=O)N3CC4CC3CN4)c2n1 (single isomer, unassigned) [Example 122]	5.9 °C	6.5 °C	1.8 °C	4.9 °C
Cn1cc2cc(Oc3cc(F)ccc3C(F)(F)F)cc([C@@H]3C[C@H]3C(=O)N3CC(O)C3)c2n1 (single isomer, unassigned) [Example 133]	1.1 °C	8.5 °C	0.3 °C	4.9 °C
Cn1cc2cc(Oc3ccc(C(F)(F)F)cc3)cc([C@@H]3C[C@H]3C(=O)N3CCC34CC(O)C4)c2n1 (single isomer, unassigned) [Example 136]	7.1 °C	12.4 °C	1.7 °C	10.3 °C
Cn1cc2cc(Oc3cc(F)c(F)c(F)c3)cc([C@@H]3C[C@H]3C(=O)N3C[C@@H]4C[C@H]3C[C@@H]4O)c2n1 (single isomer, unassigned) [Example 138]	4.2 °C	6.8 °C	2.3 °C	6.4 °C
CNS(=O)(=O)CCc1cc(N(C)c2ccc(C(F)(F)F)cc2)cc2cn(C)nc12 [Example 49]	3.2 °C	2.6 °C	0.1 °C	5.1 °C
